Test results taken from patent US8227510B2, “Combine use of pterostilbene and quercetin for the production of cancer treatment medicaments” (Universitat de Valencia, priority 2004, dated 2012).
Marks after values point to notes of the source that are not given here.

Legend:
B16M-F10 cells = assay: Levels of free polyphenols in the incubation medium of B16M-F10 cultures; assay type: in vitro ADME; details: throughout the culture time
B16M-F10 cells / HSE [1] = assay: Adhesion in vitro of B16M-F10 cells to hepatic sinusoidal endothelium; assay type: cell-based, mice; details: for inhibition of adhesion of tumor cells to the endothelium: brief exposure (60 minutes), TNF and IFN present; for Tumor cells Adhesion (%): t-RESV 12 μM, t-PTER 40 μM, QUER 20 μM, 60 minutes exposure, cytokine-treated HSE, no polyphenol = 100%
From the text: (§1) C57BL/6J mice were used (male, 10 to 12 weeks old) from IFFA Credo (L'Arbreole, France). The hepatic sinusoidal endothelium (HSE) was separated and identified as described previously (20). The sinusoidal cells were separated in a gradient of 17.5% metrizamide (w/v). The HSE cultures were established and maintained in pyrogen-free DMEM supplemented as described previously for the B16M-F10 cells. Differential adhesion of the endothelial cells to the collagen matrix and washing permitted complete removal of other types of sinusoidal cells (Kupffer's cells, astrocytes, lymphocytes) from the culture flasks.
(§2) The B16M-F10 cells were labeled with 2′,7′-bis-(2-carboxyethyl)-5-(and -6)-carboxyfluorescein acetoxymethyl ester (BCECF-AM; Moleculer Probes, Eugene, Oreg., USA) (10^6 cells were incubated for 20 minutes at 37° C. in 1 ml of DMEM buffered with HEPES that contained 50 μg of BCECF-AM and 5 μl of DMSO). After washing, the cells that contained BCECF-AM were resuspended in DMEM buffered with HEPES without phenol red at a concentration of 2.5×10^6 cells/ml and were added (0.2 ml/well) to the endothelial cell culture (seeded 24 hours previously), as well as to wells of plastic and controls previously treated with collagen. The plates were then incubated at 37° C. and, 20 minutes later, the wells were washed three times with fresh medium, and then their fluorescence was read using a Fluoroskan Ascent FL (Labsystems, Manchester, UK). The number of adhering tumor cells was quantified with arbitrary fluorescence units based on the percentage relative to the initial number of B16M-F10 cells added to the HSE culture (20). The damage caused to the B16M-F10 cells during their adhesion in vitro to the HSE was evaluated as described previously (21) using tumor cells labeled with calcein-AM (Molecular Probes, Eugene, Oreg., USA). The integrity of the B16M-F10 cells cultivated on their own was evaluated by exclusion of trypan blue and measuring the lactate dehydrogenase released to the extracellular medium (22). The other reagents used in the tumoral cytotoxicity experiments were from Sigma.
Recombinant murine TNF- (2×10^7 U/mg of protein) and recombinant murine interferon-(IFN-; 10^5 U/mg of protein) were obtained from Sigma. The concentrated solutions (5×10^5 U TNF-/ml and 25×10^4 U IFN-/ml) were diluted in sterile saline (0.9% NaCl), adjusted to pH 7.0, and stored at 4° C.
In addition to the effect of PTER+QUER on tumor growth, we investigated the antimetastatic potential. The interaction of B16M-F10 and HSE cells was studied in vitro first. On the basis of the results obtained previously, we chose brief periods of exposure (60 minutes) of the metastatic cells to the polyphenols (at the concentrations measured in the plasma after their i.v. administration). Since the interaction of the metastatic cells with the endothelial cells and Kupffer's cells activates the local release of proinflammatory cytokines [promoters of adhesion of cancer cells to the endothelium and of invasion (14, 31)], we investigated the effect of the polyphenols on the adhesion of B16M-F10 cells to the HSE in the presence of TNF- and IFN-—this combination of cytokines induces maximum activation of the HSE (see ref. 20 and the references therein) (Table 3). […] A similar effect (˜60% inhibition of adhesion) was found in the presence of t-PTER (Table 3). […]

B16M-F10 cells / HSE [2] = assay: HSE-induced cytotoxicity on adhering B16M-F10 cells in vitro; assay type: cell-based, mice; details: for Tumor cells Cytotoxicity (% of adhering): t-RESV 12 μM, t-PTER 40 μM, QUER 20 μM, after 6 hours of incubation, none 15 ± 2
From the text: as §1, §2
Recombinant murine TNF- (2×10^7 U/mg of protein) and recombinant murine interferon-(IFN-; 10^5 U/mg of protein) were obtained from Sigma. […]
HSE cells, previously cultured for 24 hours [±polyphenol(s), added 12 hours from seeding and removed by washing 60 minutes later], were cocultured with B16M-F10 cells previously cultured for 72 hours [±polyphenol(s), as in FIG. 2]. […] In the tests of endothelium-induced cytotoxicity on the B16M-F10 cells, the tumor damage (expressed as the percentage of tumor cells that lost viability during the incubation period of 4-6 hours, see the methodology) was determined after 6 hours of incubation. […]

B16M-F10 cells / HSE [3] = assay: In-vitro invasion of the monolayer of hepatic endothelial cells by B16M-F10 cells; assay type: cell-based, mice; details: t-RESV 12 μM, t-PTER 40 μM, QUER 20 μM; 5 days culture; none 157 ± 17
Experimental: The test of invasion of the endothelial cell monolayer by B16M-F10 cells was carried out in accordance with the method of Ohigashi et al. (23) with some modifications. The HSE cells were seeded on culture plates with grids coated with gelatin (1%). When the cells attained confluence, the culture medium was replaced with freshly prepared medium. After 2 hours of incubation, the cultures were washed with DMEM and then the B16M-F10 cells were seeded on the HSE cells, maintaining the culture for 5 days. The invasion capacity of the B16M-F10 cells was measured by counting the number of colonies per 1 cm^2 formed under the HSE monolayer using a phase-contrast microscope.
HSE cells, previously cultured for 24 hours [±polyphenol(s), added 12 hours from seeding and removed by washing 60 minutes later], were cocultured with B16M-F10 cells previously cultured for 72 hours [±polyphenol(s), as in FIG. 2]. Cytokines [100 units of TNF-/ml and 50 units of IFN-/ml, see (20)] or the vehicle (physiological saline) were added to the culture media 12 hours before starting the cocultures. The proportion of adhesion of the tumor cells to the HSE was ˜1:1 in the cultures treated with cytokines in the absence of polyphenols (this value was assigned an adhesion level of 100%). In the experiments of adhesion between B16M-F10 cells and endothelial cells, 20 minutes after adding the B16M-F10 to the HSE, the plates were washed in the manner described in the methodology. In the tests of endothelium-induced cytotoxicity on the B16M-F10 cells, the tumor damage (expressed as the percentage of tumor cells that lost viability during the incubation period of 4-6 hours, see the methodology) was determined after 6 hours of incubation. During the 6-hour incubation period, the percentage viability of the HSE cells was 99-100% in all cases. All of the tests were carried out in the absence or in the presence of t-RESV (12 μM), t-PTER (40 μM), and/or QUER (20 μM). […]

In the case of `COc1cc(/C=C/c2ccc(O)cc2)cc(OC)c1` [PTER, pterostilbene], the “total levels of free polyphenols in the incubation medium (metabolism by cancer cells)” value (B16M-F10 cells) is reported as “remained unchanged”, the “inhibition of adhesion of tumor cells to the endothelium” value (B16M-F10 cells / HSE [1]) is reported as ~60% and the “Tumor cells Adhesion (%)” value (B16M-F10 cells / HSE [1]) is reported as 40 ± 6 %. For the same molecule, the “Tumor cells Cytotoxicity (% of adhering)” value (B16M-F10 cells / HSE [2]) was 19 ± 3* % of adhering and the “Number of colonies penetrated per cm^2” value (B16M-F10 cells / HSE [3]) was 89 ± 9** per cm^2.

For `O=c1c(O)c(-c2ccc(O)c(O)c2)oc2cc(O)cc(O)c12` [QUER, quercetin], the “total levels of free polyphenols in the incubation medium (metabolism by cancer cells)” value (B16M-F10 cells) was “remained unchanged”, the “inhibition of adhesion of tumor cells to the endothelium” value (B16M-F10 cells / HSE [1]) was “without affecting the level of adhesion” and the “Tumor cells Adhesion (%)” value (B16M-F10 cells / HSE [1]) was 98 ± 11%. For the same molecule, the “increase of the death of B16M-F10 cells induced by the HSE” value (B16M-F10 cells / HSE [2]; brief exposure (60 minutes)) was ~48%, the “Tumor cells Cytotoxicity (% of adhering)” value (B16M-F10 cells / HSE [2]) was 52 ± 6** % of adhering and the “Number of colonies penetrated per cm^2” value (B16M-F10 cells / HSE [3]) was 106 ± 15** per cm^2.

For `Oc1ccc(C=Cc2cc(O)cc(O)c2)cc1` [RESV, resveratrol, reference compound], the “Tumor cells Adhesion (%)” value (B16M-F10 cells / HSE [1]) was 53 ± 7 %, the “Tumor cells Cytotoxicity (% of adhering)” value (B16M-F10 cells / HSE [2]) was 12 ± 3 % of adhering and the “Number of colonies penetrated per cm^2” value (B16M-F10 cells / HSE [3]) was 104 ± 12** per cm^2.
